Source: US11972843B2, “Systems and methods for predicting adverse events and assessing level of sedation during medical procedures” (Massachusetts Institute of Technology, priority 2015, dated 2024)

Test system: patients receiving propofol during procedural sedation
Conditions: 23 patients; per patient, average of the pharmacokinetic-model effect-site concentrations at end of procedure with all boluses and with the last bolus removed
Source text: The start and end of the procedure were marked by the clinical staff who collected the data. The average of the “all drugs” value and the “last drug removed” value at the time of the end of the procedure constitutes, in this illustrative embodiment, an estimate of the titration threshold that the clinician aims to remain above between the start and end of the procedure.
The titration threshold for each patient was established as described in connection with FIG. 17, namely: the start and end of the procedure were marked by the clinical staff who collected the data; the end-procedure effect-site concentration, shown on the y-axis, of each patient was estimated with all drug administrations, and again without the final bolus administration; and the average of these two values was taken as the estimated titration threshold for that patient. […] The titration threshold is estimated at the time the procedure ends since the proceduralist deems it necessary to administer a final bolus in order to render the patient's sedation level sufficient to endure the procedure.

CC(C)c1cccc(C(C)C)c1O [propofol]
mean of the estimated titration thresholds (end-procedure effect-site concentration): 1.72 micrograms/milliliter
